From patent US8969403B2, “Crystalline forms of a 3-[2-methanesulfonyl-1-(4-trifluoromethyl-phenoxy)ethyl]pyrrolidine compound” (Theravance Biopharma R&D IP, LLC, priority 2011, dated 2015)

Columns and labels:
[1] = Dynamic moisture sorption (DMS) assessment; assay type: physicochemical; conditions: for crystalline form after the DMS experiment (by PXRD, DSC, TGA): 5% RH to 90% RH adsorption/desorption, 25° C.; for moisture picked up during the adsorption segment (DMS): 5% RH to 90% RH, isothermal 25° C., desorption matches adsorption, no hysteresis
Procedure: Dynamic moisture sorption (DMS) measurements were performed for each crystalline form using a VTI atmospheric microbalance, SGA-100 system (VTI Corp., Hialeah, Fla. 33016). A weighed sample was used and the humidity was set at the ambient value at the start of the analysis. The DMS analysis consisted of a scan rate of 5% RH/step over the full humidity range of 5% relative humidity (RH) to 90% RH. The DMS run was performed isothermally at 25° C.

[2] = Slurry conversion of mixed anhydrous Form I and Form II in MTBE:water (95:5); assay type: physicochemical; conditions: equal amounts Form I and Form II, room temperature, three days
Procedure: Equal amounts (˜50 mg) of anhydrous Form I and anhydrous Form II were weighed out and physically mixed in a vial with a spatula. A solution of MTBE:water (95:5) was added to this solid mixture and stirred to form a suspension. The suspension was stirred at room temperature for three days and filtered through a filter paper. The solid residue was allowed to dry under ambient conditions and analyzed with powder X-ray diffractometry and DSC.

| crystalline form after the DMS experiment (by PXRD, DSC, TGA) [1] | moisture uptake between 60% RH and 65% RH (DMS adsorption segment) ([1]; gradual uptake until 60% RH, isotherm flat 65% RH to 90% RH, moisture not lost on desorption) | anhydrous Form II content of the filtered solid (PXRD) [2] [%] | form conversion under slurry conditions [2] | moisture picked up during the adsorption segment (DMS) [1] | Structure (SMILES) |
| --- | --- | --- | --- | --- | --- |
| converted to the monohydrate form | rapid | > 95 | converted to anhydrous Form II |  | CS(=O)(=O)C[C@@H](Oc1ccc(C(F)(F)F)cc1)[C@H]1CCNC1 [anhydrous Form I, (S)-3-[(S)-2-methanesulfonyl-1-(4-trifluoromethylphenoxy)ethyl]pyrrolidine] |
| remains as the monohydrate form |  |  |  | less than 1 % by weight | CS(=O)(=O)C[C@@H](Oc1ccc(C(F)(F)F)cc1)[C@H]1CCNC1 [monohydrate, (S)-3-[(S)-2-methanesulfonyl-1-(4-trifluoromethylphenoxy)ethyl]pyrrolidine] |
| remains as Form II |  |  |  | less than 1 % by weight | CS(=O)(=O)C[C@@H](Oc1ccc(C(F)(F)F)cc1)[C@H]1CCNC1 [anhydrous Form II, (S)-3-[(S)-2-methanesulfonyl-1-(4-trifluoromethylphenoxy)ethyl]pyrrolidine] |
